Our source for the IC50 values is patent US20110053923A1, “CHEMICAL COMPOUNDS 610” (AstraZeneca, priority 2008, published 2011).

For one experiment, the target named is T1, ATR (Homo sapiens, UniProt Q13535).
T1 construct: obtained from HeLa nuclear extract (CIL Biotech, Mons, Belgium) by immunoprecipitation with rabbit polyclonal antiserum raised to amino acids 400-480 of ATR; host or cells: HeLa nuclear extract
As to the kind of experiment: Enzyme Assay - ATR (Test (a)).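 Further: kinase activity of bead-bound ATR toward a GST-p53 N-terminal fragment substrate, 1 h at 37 °C, read by chemiluminescence, with inhibitor-free wells as control.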 In kind it is biochemical.

Another experiment has as its target mTOR (Homo sapiens, UniProt P42345). As to the kind of experiment: Enzyme - mTOR Kinase Assay (Echo).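 Further: enzyme expressed in HEK293 cells, 2 h incubation at room temperature, read-out is phosphorylation of a biotinylated peptide substrate detected with an anti-phospho p70 S6 Kinase (T389) antibody, inhibition lowers signal.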 In kind it is biochemical. Conditions: recombinant FLAG-tagged mTOR (1362-2549); AlphaScreen; ATP 20 μM. A general note: Bead proximity is the source of the signal in Alpha formats.
Where [1] appears, read: ATR immunoprecipitated from HeLa nuclear extract, 3 μM ATP, average of individual tests, read-out: ATR average IC50.

Like-named read-outs stand apart in the source and are kept apart here. Some results are limits rather than exact numbers.

T1 sequence (Q13535 whole entry, the tested form may be a part): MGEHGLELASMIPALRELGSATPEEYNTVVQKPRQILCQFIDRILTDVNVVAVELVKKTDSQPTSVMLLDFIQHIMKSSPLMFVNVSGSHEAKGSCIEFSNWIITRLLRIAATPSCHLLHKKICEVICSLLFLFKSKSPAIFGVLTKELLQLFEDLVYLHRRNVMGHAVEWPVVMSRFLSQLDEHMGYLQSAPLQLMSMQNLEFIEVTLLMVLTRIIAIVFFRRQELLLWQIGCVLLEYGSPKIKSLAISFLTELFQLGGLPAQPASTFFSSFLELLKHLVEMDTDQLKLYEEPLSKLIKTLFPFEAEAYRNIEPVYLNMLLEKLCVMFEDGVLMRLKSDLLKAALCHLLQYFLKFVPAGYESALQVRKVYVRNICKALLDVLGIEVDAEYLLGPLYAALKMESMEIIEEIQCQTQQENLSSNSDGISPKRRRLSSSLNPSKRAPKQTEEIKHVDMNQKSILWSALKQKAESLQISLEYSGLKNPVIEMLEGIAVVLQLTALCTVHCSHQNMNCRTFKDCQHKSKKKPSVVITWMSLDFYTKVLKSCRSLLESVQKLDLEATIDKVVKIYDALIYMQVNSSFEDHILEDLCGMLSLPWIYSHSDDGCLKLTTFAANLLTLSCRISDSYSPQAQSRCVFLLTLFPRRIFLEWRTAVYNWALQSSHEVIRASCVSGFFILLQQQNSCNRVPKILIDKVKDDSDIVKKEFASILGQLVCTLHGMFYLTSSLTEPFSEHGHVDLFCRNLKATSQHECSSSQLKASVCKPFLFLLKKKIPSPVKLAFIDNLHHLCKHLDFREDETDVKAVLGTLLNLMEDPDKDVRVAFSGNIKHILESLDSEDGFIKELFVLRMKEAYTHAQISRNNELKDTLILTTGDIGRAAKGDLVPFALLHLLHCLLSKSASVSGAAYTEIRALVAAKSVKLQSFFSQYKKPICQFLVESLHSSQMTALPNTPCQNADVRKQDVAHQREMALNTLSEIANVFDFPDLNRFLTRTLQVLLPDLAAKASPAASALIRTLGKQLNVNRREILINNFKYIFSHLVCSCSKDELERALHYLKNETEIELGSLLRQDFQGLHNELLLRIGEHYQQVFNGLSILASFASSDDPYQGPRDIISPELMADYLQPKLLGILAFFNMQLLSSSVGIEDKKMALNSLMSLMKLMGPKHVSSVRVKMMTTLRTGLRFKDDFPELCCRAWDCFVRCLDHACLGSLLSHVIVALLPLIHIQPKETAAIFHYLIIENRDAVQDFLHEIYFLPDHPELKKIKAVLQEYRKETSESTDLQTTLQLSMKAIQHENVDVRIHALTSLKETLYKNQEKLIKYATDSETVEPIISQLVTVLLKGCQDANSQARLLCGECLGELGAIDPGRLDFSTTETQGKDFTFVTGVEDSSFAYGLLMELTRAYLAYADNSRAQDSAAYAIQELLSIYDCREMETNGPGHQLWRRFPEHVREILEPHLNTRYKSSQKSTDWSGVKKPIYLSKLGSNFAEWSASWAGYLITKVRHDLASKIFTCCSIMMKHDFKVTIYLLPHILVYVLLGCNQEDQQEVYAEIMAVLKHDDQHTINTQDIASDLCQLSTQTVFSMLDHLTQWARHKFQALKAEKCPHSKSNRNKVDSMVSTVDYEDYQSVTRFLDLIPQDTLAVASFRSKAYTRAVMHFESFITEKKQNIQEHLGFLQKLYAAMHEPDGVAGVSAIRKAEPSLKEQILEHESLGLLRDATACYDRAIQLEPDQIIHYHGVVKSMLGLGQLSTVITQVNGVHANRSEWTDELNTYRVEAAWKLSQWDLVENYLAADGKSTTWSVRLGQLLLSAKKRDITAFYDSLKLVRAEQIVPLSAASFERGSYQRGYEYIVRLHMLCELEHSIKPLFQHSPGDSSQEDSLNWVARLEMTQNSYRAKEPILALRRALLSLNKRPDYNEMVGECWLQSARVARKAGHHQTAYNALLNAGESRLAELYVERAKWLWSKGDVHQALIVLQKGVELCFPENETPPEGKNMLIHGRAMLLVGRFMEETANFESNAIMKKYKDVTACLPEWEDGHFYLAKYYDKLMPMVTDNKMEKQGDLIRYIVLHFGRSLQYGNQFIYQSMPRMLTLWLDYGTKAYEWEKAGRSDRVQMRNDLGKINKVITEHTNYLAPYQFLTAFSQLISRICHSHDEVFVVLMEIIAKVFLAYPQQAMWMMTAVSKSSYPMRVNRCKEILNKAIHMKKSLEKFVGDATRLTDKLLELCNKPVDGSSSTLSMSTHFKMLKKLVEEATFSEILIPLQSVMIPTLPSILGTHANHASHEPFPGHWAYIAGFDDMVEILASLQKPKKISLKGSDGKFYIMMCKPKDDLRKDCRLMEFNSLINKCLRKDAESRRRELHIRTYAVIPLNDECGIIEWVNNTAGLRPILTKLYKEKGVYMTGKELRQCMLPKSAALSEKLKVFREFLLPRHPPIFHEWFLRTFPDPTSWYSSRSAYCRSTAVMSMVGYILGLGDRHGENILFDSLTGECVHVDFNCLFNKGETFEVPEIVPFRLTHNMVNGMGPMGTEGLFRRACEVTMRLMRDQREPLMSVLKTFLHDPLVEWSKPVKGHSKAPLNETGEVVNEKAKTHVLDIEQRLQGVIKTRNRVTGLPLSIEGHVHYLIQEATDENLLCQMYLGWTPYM
T1 sequence (Q8WXE1 whole entry partner, the tested form may be a part): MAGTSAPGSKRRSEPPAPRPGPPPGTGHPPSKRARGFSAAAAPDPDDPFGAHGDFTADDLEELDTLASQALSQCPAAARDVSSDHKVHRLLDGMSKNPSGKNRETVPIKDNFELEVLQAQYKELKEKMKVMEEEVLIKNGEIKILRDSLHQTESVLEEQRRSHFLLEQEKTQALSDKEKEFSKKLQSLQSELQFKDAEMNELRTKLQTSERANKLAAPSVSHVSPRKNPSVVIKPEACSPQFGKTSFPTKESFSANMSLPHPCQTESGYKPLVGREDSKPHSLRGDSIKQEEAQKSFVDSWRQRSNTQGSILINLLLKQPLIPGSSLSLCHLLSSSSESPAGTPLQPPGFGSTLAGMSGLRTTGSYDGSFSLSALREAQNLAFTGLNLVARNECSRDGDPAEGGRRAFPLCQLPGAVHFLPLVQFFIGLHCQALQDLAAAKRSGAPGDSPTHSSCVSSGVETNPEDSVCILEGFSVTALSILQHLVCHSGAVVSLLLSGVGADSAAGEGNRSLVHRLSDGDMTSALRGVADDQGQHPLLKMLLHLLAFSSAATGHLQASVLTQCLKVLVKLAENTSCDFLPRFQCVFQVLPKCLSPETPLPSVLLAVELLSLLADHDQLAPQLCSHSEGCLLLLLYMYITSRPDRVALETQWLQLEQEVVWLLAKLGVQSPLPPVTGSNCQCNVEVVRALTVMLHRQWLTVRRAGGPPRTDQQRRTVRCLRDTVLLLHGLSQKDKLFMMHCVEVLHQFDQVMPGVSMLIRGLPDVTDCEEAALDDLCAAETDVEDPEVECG
Sequence of mTOR (P42345 1362-2549): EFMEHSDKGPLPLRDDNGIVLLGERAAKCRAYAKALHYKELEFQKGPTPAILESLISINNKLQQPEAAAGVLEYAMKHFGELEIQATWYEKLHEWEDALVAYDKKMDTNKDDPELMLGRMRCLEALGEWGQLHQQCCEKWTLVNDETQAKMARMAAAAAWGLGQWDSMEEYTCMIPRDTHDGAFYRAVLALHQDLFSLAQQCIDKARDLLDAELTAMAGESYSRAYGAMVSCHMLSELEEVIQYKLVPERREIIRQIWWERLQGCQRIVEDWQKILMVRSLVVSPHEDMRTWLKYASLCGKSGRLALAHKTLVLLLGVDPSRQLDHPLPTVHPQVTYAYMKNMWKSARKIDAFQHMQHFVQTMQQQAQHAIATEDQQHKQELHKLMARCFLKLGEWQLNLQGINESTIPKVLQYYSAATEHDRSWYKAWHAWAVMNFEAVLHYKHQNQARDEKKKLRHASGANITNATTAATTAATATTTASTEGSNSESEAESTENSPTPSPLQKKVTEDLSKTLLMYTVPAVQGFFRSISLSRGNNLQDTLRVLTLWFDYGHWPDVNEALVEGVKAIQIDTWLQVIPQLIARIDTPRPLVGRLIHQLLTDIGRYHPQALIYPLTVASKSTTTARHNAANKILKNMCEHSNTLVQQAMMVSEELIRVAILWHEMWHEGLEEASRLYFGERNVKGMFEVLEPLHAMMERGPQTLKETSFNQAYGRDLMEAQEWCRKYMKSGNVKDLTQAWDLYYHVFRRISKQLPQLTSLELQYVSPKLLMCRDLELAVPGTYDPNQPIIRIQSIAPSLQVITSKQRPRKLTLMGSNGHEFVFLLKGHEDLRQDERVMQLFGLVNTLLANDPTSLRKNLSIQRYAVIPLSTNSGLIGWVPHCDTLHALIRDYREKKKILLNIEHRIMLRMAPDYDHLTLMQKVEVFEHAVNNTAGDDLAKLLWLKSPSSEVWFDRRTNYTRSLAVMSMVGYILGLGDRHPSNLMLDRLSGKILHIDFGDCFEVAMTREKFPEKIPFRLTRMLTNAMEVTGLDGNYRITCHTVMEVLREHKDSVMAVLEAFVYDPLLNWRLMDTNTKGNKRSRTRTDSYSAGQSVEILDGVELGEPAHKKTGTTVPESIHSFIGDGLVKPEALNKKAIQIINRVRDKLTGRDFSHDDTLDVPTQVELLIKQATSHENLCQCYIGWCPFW

As for `CS(=O)(=O)C1(c2cc(N3CCOCC3)nc(-c3cc(C#N)cc4[nH]ccc34)n2)CC1` [Example 1.05, 4-{4-[1-(methylsulfonyl)cyclopropyl]-6-morpholin-4-ylpyrimidin-2-yl}-1H-indole-6-carbonitrile], the IC50 – broadly, the concentration that inhibits the measured activity by half – at ATR (setting [1]) is 65.9 nM; on mTOR, 326 nM.

Consider `Cc1cc2c(-c3nc(N4CCOC[C@H]4C)cc(C4(S(C)(=O)=O)CC4)n3)cccc2[nH]1` [Example 3.03, 2-Methyl-4-{4-[(3R)-3-methylmorpholin-4-yl]-6-[1-(methylsulfonyl)cyclopropyl]pyrimidin-2-yl}-1H-indole], for which the values for the IC50 at ATR (setting [1]) and at mTOR were 5.46 nM and 46.3 nM, respectively.

With `C[C@@H]1COCCN1c1cc(C2(S(C)(=O)=O)CCNCC2)nc(-c2cccc3[nH]ccc23)n1` [Example 3.15, 4-{4-[(3R)-3-Methylmorpholin-4-yl]-6-[4-(methylsulfonyl)piperidin-4-yl]pyrimidin-2-yl}-1H-indole], the IC50 came out at 2.55 nM on ATR (setting [1]) and 980 nM at mTOR.

`C[C@H]1COCCN1c1cc(C2(S(=O)(=O)C3CC3)CCOCC2)nc(-c2cccc3[nH]ccc23)n1` [Example 2.02, 4-{4-[4-(Cyclopropylsulfonyl)tetrahydro-2H-pyran-4-yl]-6-[(3S)-3-methylmorpholin-4-yl]pyrimidin-2-yl}-1H-indole]: the concentration for half-maximal inhibition (IC50) on ATR (setting [1]) is 376 nM; on mTOR it was 467 nM.

As to `C[C@H]1COCCN1c1cc(C2(S(=O)(=O)C3CC3)CCNCC2)nc(-c2cccc3[nH]ccc23)n1` [Example 2.01, 4-{4-[4-(Cyclopropylsulfonyl)piperidin-4-yl]-6-[(3S)-3-methylmorpholin-4-yl]pyrimidin-2-yl}-1H-indole], the half-inhibitory concentration (IC50) on ATR (setting [1]) was found to be 26.8 nM; at mTOR it was 497 nM.

Consider `CCS(=O)(=O)C1(c2cc(N3CCOC[C@H]3C)nc(-c3cccc4[nH]ccc34)n2)CCNCC1` [Example 3.22, 4-{4-[4-(Ethylsulfonyl)piperidin-4-yl]-6-[(3R)-3-methylmorpholin-4-yl]pyrimidin-2-yl}-1H-indole], for which the IC50 on ATR (setting [1]) was 8.19 nM; on mTOR, 556 nM.

With `C[C@@H]1COCCN1c1cc(C2(S(C)(=O)=O)CC2)nc(-c2cc(Cl)cc3[nH]ccc23)n1` [Example 3.05, 6-chloro-4-{4-[(3R)-3-methylmorpholin-4-yl}-6-[1-(methylsulfonyl)cyclopropyl]pyrimidin-2-yl}-1H-indole], the IC50 on ATR (setting [1]) turned out to be 4.23 nM; on mTOR, 54.6 nM.

In the case of `O=S(=O)(C1CC1)C1(c2cc(N3CCOCC3)nc(-c3cccc4[nH]ccc34)n2)CC1` [Example 1.12, 4-{4-[1-(cyclopropylsulfonyl)cyclopropyl]-6-morpholin-4-ylpyrimidin-2-yl}-1H-indole], the IC50 at ATR (setting [1]) is 32.1 nM; on mTOR it was more than 90000 nM.

With `Cc1cc2c(-c3nc(N4CCOCC4)cc(C4(S(C)(=O)=O)CC4)n3)cccc2[nH]1` [Example 1.03, 2-Methyl-4-{4-[1-(methylsulfonyl)cyclopropyl]-6-morpholin-4-ylpyrimidin-2-yl}-1H-indole], the values for the IC50 against ATR and on mTOR were 27.5 nM and 166 nM, respectively.

On to `C[C@@H]1COCCN1c1cc(C2(S(C)(=O)=O)CCOCC2)nc(-c2cc(F)cc3[nH]ccc23)n1` [Example 3.13, 6-fluoro-4-{4-[(3R)-3-methylmorpholin-4-yl]-6-[4-(methylsulfonyl)tetrahydro-2H-pyran-4-yl]pyrimidin-2-yl}-1H-indole], for which the IC50 was determined as 1.53 nM at ATR (setting [1]) and 250 nM on mTOR.

In the case of `C[C@H]1COCCN1c1cc(C2(S(C)(=O)=O)CCOCC2)nc(-c2cccc3[nH]ccc23)n1` [Example 2.04, 4-{4-[(3S)-3-Methylmorpholin-4-yl]-6-[4-(methylsulfonyl)tetrahydro-2H-pyran-4-yl]pyrimidin-2-yl}-1H-indole], the IC50 at ATR (setting [1]) was 4.55 nM; on mTOR it was 300 nM.

Regarding `C[C@@H]1COCCN1c1cc(C2(S(=O)(=O)C3CC3)CCOCC2)nc(-c2cccc3[nH]ccc23)n1` [Example 3.19, 4-{4-[4-(Cyclopropylsulfonyl)tetrahydro-2H-pyran-4-yl]-6-[(3R)-3-methylmorpholin-4-yl]pyrimidin-2-yl}-1H-indole], the IC50 at ATR (setting [1]) came out at 97.6 nM; at mTOR, 2820 nM.

As to `C[C@@H]1COCCN1c1cc(C2(S(C)(=O)=O)CC2)nc(-c2cc(C#N)cc3[nH]ccc23)n1` [Example 3.04, 4-{4-[(3R)-3-Methylmorpholin-4-yl]-6-[1-(methylsulfonyl)cyclopropyl]pyrimidin-2-yl}-1H-indole-6-carbonitrile], the IC50 turned out to be 35.5 nM on ATR (setting [1]) and 207 nM on mTOR.

`CC(C)S(=O)(=O)C1(c2cc(N3CCOC[C@H]3C)nc(-c3cccc4[nH]ccc34)n2)CC1` [Example 3.23, 4-(4-{1-[(1-Methylethyl)sulfonyl]cyclopropyl}-6-[(3R)-3-methylmorpholin-4-yl]pyrimidin-2-yl)-1H-indole]: the IC50 turned out to be 2.47 nM on ATR (setting [1]) and 89.1 nM on mTOR.

For `C[C@@H]1COCCN1c1cc(C2(S(C)(=O)=O)CCC2)nc(-c2cccc3[nH]ccc23)n1` [Example 3.16, 4-{4-[(3R)-3-Methylmorpholin-4-yl]-6-[1-(methylsulfonyl)cyclobutyl]pyrimidin-2-yl}-1H-indole], the results for the IC50 on ATR (setting [1]) and at mTOR were 1.99 nM and 85.8 nM, respectively.

Regarding `CC(C)S(=O)(=O)C1(c2cc(N3CCOCC3)nc(-c3cccc4[nH]ccc34)n2)CC1` [Example 1.11, 4-(4-{1-[(1-methylethyl)sulfonyl]cyclopropyl}-6-morpholin-4-ylpyrimidin-2-yl)-1H-indole], the figures for the IC50 on ATR (setting [1]) and at mTOR were 13.2 nM and 122 nM, respectively.

Turning to `Cc1cc(-c2nc(N3CCOC[C@H]3C)cc(C3(S(C)(=O)=O)CCOCC3)n2)c2cc[nH]c2c1` [Example 3.09, 6-Methyl-4-{4-[(3R)-3-methylmorpholin-4-yl]-6-[4-(methylsulfonyl)tetrahydro-2H-pyran-4-yl]pyrimidin-2-yl}-1H-indole], the figures for the half-inhibitory concentration (IC50) at ATR (setting [1]) and on mTOR were 1.58 nM and 451 nM, respectively.

Consider `C[C@@H]1COCCN1c1cc(C2(S(C)(=O)=O)CC2)nc(-c2cc(F)cc3[nH]ccc23)n1` [Example 3.06], for which the IC50 is 3.45 nM at ATR (setting [1]) and 38 nM on mTOR.

Take `C[C@@H]1COCCN1c1cc(C2(S(C)(=O)=O)CCOCC2)nc(-c2cc(C#N)cc3[nH]ccc23)n1` [Example 3.14, 4-{4-[(3R)-3-methylmorphohn-4-yl]-6-[4-(methylsulfonyl)tetrahydro-2H-pyran-4-yl]pyrimidin-2-yl}-1H-indole-6-carbonitrile]: the half-inhibitory concentration (IC50) was found to be 14.2 nM at ATR (setting [1]) and 692 nM at mTOR.

As to `O=S(=O)(C1CC1)C1(c2cc(N3CCOCC3)nc(-c3cccc4[nH]ccc34)n2)CCNCC1` [Example 1.14, 4-{4-[4-(cyclopropylsulfonyl)piperidin-4-yl]-6-morpholin-4-ylpyrimidin-2-yl}-1H-indole], the IC50 stood at 22.4 nM at ATR (setting [1]) and 1460 nM on mTOR.

Take `CC(C)S(=O)(=O)C1(c2cc(N3CCOC[C@H]3C)nc(-c3cccc4[nH]ccc34)n2)CCOCC1` [Example 3.24, 4-(4-{4-[(1-Methylethyl)sulfonyl]tetrahydro-2H-pyran-4-yl}-6-[(3R)-3-methylmorpholin-4-yl]pyrimidin-2-yl)-1H-indole]: the IC50 on ATR (setting [1]) was determined as 261 nM; at mTOR it was 6150 nM.
